Blank lines part the entries; values can stand above or below the compound they belong to. The source made the active and inactive calls. No cut-off for these calls is given here.
Key:
[1] = target: T1, Glycogen synthase kinase-3 beta (Homo sapiens, UniProt P49841); assay: Inhibition of N-terminal His6-tagged recombinant human GSK3beta H350L mutant expressed in baculovirus infected Sf21 cells using GSM as substrate incubated for 30 mins in presence of ATP by Kinase-Glo luminescent assay
Target sequence in this assay (P49841 whole entry): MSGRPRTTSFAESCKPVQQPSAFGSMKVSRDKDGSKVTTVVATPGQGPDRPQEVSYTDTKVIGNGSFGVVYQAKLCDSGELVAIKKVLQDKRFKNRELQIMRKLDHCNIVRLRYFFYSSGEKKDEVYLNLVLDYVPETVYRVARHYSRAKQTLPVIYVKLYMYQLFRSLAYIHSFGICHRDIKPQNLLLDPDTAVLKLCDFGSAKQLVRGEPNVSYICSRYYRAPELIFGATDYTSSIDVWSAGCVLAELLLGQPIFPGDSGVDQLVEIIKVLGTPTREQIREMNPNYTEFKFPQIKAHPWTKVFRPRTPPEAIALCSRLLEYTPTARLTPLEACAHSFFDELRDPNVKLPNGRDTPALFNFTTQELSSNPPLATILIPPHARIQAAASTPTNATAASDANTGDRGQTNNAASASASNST

[2] = target: T2, Protein cereblon/Glycogen synthase kinase-3 beta (Rattus norvegicus) (UniProt P18266+Q56AP7); assay: Protac activity at CRBN/GSK3beta in rat PC12 cells assessed as GSK3beta degradation by measuring GSK3beta protein level at 10 uM after 10 hrs by Western blotting analysis; type: cell-based; conditions: PC-12
T2 sequence (P18266 whole entry, looked up): as the sequence (P49841 whole entry) above, with V240M, T390P, T392A, A400T, T402A counted along it
T2 sequence (Q56AP7 whole entry, looked up): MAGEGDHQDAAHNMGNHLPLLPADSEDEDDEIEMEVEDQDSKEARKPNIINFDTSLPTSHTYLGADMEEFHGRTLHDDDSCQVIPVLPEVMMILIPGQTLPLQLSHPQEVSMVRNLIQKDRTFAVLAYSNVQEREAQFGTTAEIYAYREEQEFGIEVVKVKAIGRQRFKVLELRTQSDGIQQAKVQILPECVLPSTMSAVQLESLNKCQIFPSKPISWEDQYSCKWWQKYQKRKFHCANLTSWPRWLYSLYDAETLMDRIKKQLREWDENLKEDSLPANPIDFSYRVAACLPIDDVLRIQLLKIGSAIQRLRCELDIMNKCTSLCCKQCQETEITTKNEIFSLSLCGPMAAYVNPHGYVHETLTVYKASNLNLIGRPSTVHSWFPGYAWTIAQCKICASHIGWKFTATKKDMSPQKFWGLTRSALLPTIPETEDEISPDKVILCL

[3] = target: T2, Protein cereblon/Glycogen synthase kinase-3 beta (Rattus norvegicus); assay: Protac activity at CRBN/GSK3beta in rat PC12 cells assessed as GSK3beta degradation by measuring GSK3beta protein level at […] preincubated for 2 hrs with […] ligand, pomalidomide followed by compound addition and measured after 8 hrs by Western blotting analysis (reference value: 100 %); type: cell-based; conditions: PC-12, dose 8.3 µM
[4] = target: T2, Protein cereblon/Glycogen synthase kinase-3 beta (Rattus norvegicus); assay: Protac activity at CRBN/GSK3beta in rat PC12 cells assessed as GSK3beta degradation by measuring GSK3beta protein level at 2.8 uM after 10 hrs by Western blotting analysis (reference value: 100 %); type: cell-based; conditions: PC-12
[5] = target: T2, Protein cereblon/Glycogen synthase kinase-3 beta (Rattus norvegicus); assay: Protac activity at CRBN/GSK3beta in rat PC12 cells assessed as GSK3beta degradation by measuring GSK3beta protein level at […] after 10 hrs by Western blotting analysis (reference value: 100 %); type: cell-based; conditions: PC-12, dose 8.3 µM
[6] = target: T2, Protein cereblon/Glycogen synthase kinase-3 beta (Rattus norvegicus); assay: Protac activity at CRBN/GSK3beta in rat PC12 cells assessed as GSK3beta degradation by measuring GSK3beta protein level at 25 uM after 10 hrs by Western blotting analysis (reference value: 100 %); type: cell-based; conditions: PC-12
[7] = target: T2, Protein cereblon/Glycogen synthase kinase-3 beta (Rattus norvegicus); assay: Protac activity at CRBN/GSK3beta in rat PC12 cells assessed as GSK3beta degradation by measuring GSK3beta protein level at […] preincubated for 2 hrs with proteasome inhibitor, MG132 followed by compound addition and measured after 8 hrs by Western blotting analysis (reference value: 100 %); type: cell-based; set-up: scale not given: the % may be the effect or the level left; conditions: PC-12, dose 8.3 µM
[8] = target: T2, Protein cereblon/Glycogen synthase kinase-3 beta (Rattus norvegicus); assay: Protac activity at CRBN/GSK3beta in rat PC12 cells assessed as GSK3beta degradation by measuring GSK3beta protein level at […] preincubated for 2 hrs with GSK3beta inhibitor, G1 followed by compound addition and measured after 8 hrs by Western blotting analysis (reference value: 100 %); type: cell-based; set-up: scale not given: the % may be the effect or the level left; conditions: PC-12, dose 8.3 µM
[9] = target: T2, Protein cereblon/Glycogen synthase kinase-3 beta (Rattus norvegicus); assay: Protac activity at CRBN/GSK3beta in rat PC12 cells assessed as GSK3beta degradation by measuring reduction in GSK3beta protein level after 10 hrs by Western blotting analysis; type: cell-based; conditions: PC-12, dose 2.8-25 µM
[10] = target: Cyclin-dependent kinase 9 (Homo sapiens) (UniProt P50750); assay: Inhibition of CDK9 (unknown origin) at 300 nM relative to control
[11] = target: Cyclin-dependent kinase 7 (Homo sapiens) (UniProt P50613); assay: Inhibition of CDK7 (unknown origin) at 300 nM relative to control
Sequence of Cyclin-dependent kinase 7 (Homo sapiens) (P50613 whole entry): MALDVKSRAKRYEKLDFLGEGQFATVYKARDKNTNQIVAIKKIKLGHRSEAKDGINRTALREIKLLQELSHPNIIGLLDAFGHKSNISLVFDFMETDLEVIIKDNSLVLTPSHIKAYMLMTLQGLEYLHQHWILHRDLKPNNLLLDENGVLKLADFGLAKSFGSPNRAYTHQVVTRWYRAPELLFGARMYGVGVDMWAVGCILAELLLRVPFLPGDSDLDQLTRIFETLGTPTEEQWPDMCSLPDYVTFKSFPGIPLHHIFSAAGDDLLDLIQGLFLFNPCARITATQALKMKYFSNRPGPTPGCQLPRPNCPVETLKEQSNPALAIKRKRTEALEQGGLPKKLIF

[12] = target: Cyclin-dependent kinase 4 (Homo sapiens) (UniProt P11802); assay: Inhibition of CDK4 (unknown origin) at 300 nM relative to control
Sequence of Cyclin-dependent kinase 4 (Homo sapiens) (P11802 whole entry): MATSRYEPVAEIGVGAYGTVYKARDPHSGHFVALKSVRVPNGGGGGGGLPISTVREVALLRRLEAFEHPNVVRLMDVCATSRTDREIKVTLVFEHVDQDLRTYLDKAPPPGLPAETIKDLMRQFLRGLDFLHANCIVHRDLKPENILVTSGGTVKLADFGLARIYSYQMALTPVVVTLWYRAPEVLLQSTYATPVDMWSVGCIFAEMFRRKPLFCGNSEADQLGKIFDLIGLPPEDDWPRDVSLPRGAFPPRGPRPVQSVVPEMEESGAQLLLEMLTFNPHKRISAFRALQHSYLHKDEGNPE

[13] = target: Cyclin-dependent kinase 1 (Homo sapiens) (UniProt P06493); assay: Inhibition of CDK1 (unknown origin) at 300 nM relative to control
Sequence of Cyclin-dependent kinase 1 (Homo sapiens) (P06493 whole entry, looked up): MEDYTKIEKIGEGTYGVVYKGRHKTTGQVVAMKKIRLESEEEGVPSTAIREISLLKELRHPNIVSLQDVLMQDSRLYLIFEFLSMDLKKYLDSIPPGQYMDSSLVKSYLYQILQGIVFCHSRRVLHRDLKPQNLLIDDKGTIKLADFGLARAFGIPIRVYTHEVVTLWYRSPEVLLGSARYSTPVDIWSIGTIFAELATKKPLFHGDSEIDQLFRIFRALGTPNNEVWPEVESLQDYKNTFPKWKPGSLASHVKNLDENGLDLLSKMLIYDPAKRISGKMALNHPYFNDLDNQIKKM

[14] = target: Mitogen-activated protein kinase 10 (Homo sapiens) (UniProt P53779); assay: Inhibition of JNK3 (unknown origin) at 300 nM relative to control
Sequence of Mitogen-activated protein kinase 10 (Homo sapiens) (P53779 whole entry): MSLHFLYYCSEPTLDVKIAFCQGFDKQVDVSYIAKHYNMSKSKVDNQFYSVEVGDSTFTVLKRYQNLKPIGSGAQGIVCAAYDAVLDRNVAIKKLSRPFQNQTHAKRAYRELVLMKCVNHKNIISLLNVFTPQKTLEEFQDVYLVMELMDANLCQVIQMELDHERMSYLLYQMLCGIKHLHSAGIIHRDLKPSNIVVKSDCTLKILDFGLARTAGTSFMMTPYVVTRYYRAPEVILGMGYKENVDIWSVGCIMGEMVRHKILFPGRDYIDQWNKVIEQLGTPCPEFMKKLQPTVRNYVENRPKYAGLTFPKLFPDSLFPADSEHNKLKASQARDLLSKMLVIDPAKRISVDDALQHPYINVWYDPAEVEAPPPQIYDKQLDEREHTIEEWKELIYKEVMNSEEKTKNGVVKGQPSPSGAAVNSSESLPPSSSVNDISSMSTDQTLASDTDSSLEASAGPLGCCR

[15] = target: Mitogen-activated protein kinase 9 (Homo sapiens) (UniProt P45984); assay: Inhibition of JNK2 (unknown origin) at 300 nM relative to control
Sequence of Mitogen-activated protein kinase 9 (Homo sapiens) (P45984 whole entry, looked up): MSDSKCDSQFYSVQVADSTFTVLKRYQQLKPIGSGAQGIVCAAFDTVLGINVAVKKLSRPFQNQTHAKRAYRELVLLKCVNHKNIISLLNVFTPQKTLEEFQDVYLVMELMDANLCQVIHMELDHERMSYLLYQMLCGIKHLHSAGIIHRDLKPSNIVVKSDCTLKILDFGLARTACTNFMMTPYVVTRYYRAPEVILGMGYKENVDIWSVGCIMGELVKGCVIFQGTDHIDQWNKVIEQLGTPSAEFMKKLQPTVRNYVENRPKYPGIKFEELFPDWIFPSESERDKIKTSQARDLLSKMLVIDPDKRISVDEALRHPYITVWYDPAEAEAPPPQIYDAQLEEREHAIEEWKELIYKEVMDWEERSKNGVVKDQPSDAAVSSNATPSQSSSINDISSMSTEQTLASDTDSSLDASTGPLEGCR

[16] = target: Dual specificity tyrosine-phosphorylation-regulated kinase 1B (Homo sapiens) (UniProt Q9Y463); assay: Inhibition of DYRK1beta (unknown origin) at 300 nM relative to control
[17] = target: Dual specificity tyrosine-phosphorylation-regulated kinase 1A (Homo sapiens) (UniProt Q13627); assay: Inhibition of DYRK1alpha (unknown origin) at 300 nM relative to control
[18] = target: T3, Mitogen-activated protein kinase 13 (Homo sapiens) (UniProt O15264); assay: Inhibition of p38delta (unknown origin) at 300 nM relative to control
T3 sequence (whole entry): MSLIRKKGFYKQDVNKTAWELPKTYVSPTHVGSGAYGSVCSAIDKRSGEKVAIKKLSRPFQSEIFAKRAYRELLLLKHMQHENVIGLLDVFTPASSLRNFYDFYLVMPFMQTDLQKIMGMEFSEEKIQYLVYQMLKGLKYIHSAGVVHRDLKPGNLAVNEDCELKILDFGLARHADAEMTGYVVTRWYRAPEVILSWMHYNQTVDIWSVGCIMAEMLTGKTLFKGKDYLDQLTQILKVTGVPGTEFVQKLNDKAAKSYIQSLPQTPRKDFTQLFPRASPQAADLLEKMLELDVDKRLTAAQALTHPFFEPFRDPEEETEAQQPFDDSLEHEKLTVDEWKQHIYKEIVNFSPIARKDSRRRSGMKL

[19] = target: T1, Glycogen synthase kinase-3 beta; assay: Inhibition of GSK3beta (unknown origin) at 300 nM relative to control
Target sequence in this assay (P49841 whole entry, looked up): as the sequence (P49841 whole entry) above

[20] = target: Glycogen synthase kinase-3 alpha (Homo sapiens) (UniProt P49840); assay: Inhibition of GSK3alpha (unknown origin) at 300 nM relative to control
Sequence of Glycogen synthase kinase-3 alpha (Homo sapiens) (P49840 2-483 limits assumed): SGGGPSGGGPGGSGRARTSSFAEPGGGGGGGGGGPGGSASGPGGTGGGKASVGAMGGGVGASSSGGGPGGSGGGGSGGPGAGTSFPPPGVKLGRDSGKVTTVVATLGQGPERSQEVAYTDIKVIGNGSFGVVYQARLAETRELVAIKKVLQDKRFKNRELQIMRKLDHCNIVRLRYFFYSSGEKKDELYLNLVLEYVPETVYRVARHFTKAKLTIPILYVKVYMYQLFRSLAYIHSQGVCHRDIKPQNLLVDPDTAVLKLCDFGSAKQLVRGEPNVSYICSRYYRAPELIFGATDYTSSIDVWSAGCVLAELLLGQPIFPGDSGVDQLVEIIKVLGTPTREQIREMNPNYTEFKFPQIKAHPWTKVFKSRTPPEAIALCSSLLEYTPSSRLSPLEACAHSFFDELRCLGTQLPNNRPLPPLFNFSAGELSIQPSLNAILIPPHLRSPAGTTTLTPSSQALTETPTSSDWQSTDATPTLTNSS

[21] = target: Mitogen-activated protein kinase 11 (Homo sapiens) (UniProt Q15759); assay: Inhibition of p38beta (unknown origin) at 300 nM relative to control
Sequence of Mitogen-activated protein kinase 11 (Homo sapiens) (Q15759 whole entry): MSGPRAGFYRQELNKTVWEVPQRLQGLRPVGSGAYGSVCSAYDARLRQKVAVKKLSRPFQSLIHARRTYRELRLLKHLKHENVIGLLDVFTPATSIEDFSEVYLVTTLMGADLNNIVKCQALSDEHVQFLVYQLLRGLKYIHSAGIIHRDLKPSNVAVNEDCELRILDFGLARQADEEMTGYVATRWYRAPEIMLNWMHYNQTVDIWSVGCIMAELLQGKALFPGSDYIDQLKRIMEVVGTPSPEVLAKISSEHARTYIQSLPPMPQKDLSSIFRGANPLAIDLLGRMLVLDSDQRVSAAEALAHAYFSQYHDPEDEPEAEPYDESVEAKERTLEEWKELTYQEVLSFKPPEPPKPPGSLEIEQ

[22] = target: Mitogen-activated protein kinase 14 (Homo sapiens) (UniProt Q16539); assay: Inhibition of p38alpha (unknown origin) at 300 nM relative to control
Sequence of Mitogen-activated protein kinase 14 (Homo sapiens) (Q16539 whole entry): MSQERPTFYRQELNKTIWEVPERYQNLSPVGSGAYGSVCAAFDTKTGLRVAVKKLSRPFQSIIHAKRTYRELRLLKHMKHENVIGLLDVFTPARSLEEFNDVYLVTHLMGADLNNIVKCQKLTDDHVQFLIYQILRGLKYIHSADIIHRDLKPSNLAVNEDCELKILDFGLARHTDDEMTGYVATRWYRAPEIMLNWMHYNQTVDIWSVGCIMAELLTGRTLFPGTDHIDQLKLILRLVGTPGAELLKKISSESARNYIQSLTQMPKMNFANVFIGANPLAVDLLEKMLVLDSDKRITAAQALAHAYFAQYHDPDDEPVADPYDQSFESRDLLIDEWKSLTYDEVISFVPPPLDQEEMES

[23] = target: Mitogen-activated protein kinase 1 (Homo sapiens) (UniProt P28482); assay: Inhibition of ERK2 (unknown origin) at 300 nM relative to control
Sequence of Mitogen-activated protein kinase 1 (Homo sapiens) (P28482 whole entry): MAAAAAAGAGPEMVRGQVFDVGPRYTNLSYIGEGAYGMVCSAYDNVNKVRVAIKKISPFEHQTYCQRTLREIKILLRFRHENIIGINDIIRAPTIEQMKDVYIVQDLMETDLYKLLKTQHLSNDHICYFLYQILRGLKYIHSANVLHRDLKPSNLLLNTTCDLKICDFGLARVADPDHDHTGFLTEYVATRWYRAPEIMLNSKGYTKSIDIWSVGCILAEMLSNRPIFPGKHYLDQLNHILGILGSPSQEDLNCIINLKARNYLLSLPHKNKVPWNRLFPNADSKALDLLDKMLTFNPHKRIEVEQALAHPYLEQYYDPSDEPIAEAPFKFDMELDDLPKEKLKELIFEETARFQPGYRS

[24] = target: Mitogen-activated protein kinase 3 (Homo sapiens) (UniProt P27361); assay: Inhibition of ERK1 (unknown origin) at 300 nM relative to control
Sequence of Mitogen-activated protein kinase 3 (Homo sapiens) (P27361 whole entry): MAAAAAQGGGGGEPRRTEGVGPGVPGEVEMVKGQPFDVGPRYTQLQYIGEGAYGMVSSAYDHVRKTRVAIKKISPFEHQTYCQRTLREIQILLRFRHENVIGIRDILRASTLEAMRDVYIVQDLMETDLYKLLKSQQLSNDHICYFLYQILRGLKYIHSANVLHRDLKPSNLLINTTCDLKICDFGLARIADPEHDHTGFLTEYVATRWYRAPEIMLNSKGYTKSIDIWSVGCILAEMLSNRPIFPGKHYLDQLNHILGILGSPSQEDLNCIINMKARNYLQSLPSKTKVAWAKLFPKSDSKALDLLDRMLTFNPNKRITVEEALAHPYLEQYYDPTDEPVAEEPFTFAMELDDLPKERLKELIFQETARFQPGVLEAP

[25] = test system: BV-2; assay: Anti-neuroinflammatory activity in mouse BV2 cells assessed as reduction in LPS-induced TNFalpha production at 5 uM pretreated for 5 hrs followed by LPS challenge and measured after 24 hrs by immunofluorescence confocal microscopic analysis; type: functional, cell-based; conditions: time 29.0 hrs
[26] = test system: HT-22; assay: Neuroprotective activity against glutamate-induced cell death in mouse HT22 cells at 5 uM preincubated for 10 hrs followed by glutamate challenge and measured after 24 hrs by fluorescence inverted microscopic analysis; type: functional, cell-based
[27] = target: T2, Protein cereblon/Glycogen synthase kinase-3 beta (Rattus norvegicus); assay: Protac activity at CRBN/GSK3beta in rat PC12 cells assessed as GSK3beta degradation by measuring GSK3beta protein level at 20 uM after 10 hrs by Western blotting analysis (reference value: 100 %); type: cell-based; conditions: PC-12

SMILES: CNC(=O)c1sc(-c2ccnc(NC(=O)C3CC3)c2)nc1OCCCC#Cc1cccc2c1CN(C1CCC(=O)NC1=O)C2=O (stereo not drawn)
IC50 [1]: 295 nM
GSK3beta protein level remaining [2]: 85.1%

GSK3beta protein level remaining [2]: 109%
SMILES: Nc1cccc2c1C(=O)N(C1CCC(=O)NC1=O)C2=O (stereo not drawn)

SMILES: CNC(=O)c1sc(-c2ccnc(NC(=O)C3CC3)c2)nc1OCCC#Cc1cccc2c1CN(C1CCC(=O)NC1=O)C2=O (stereo not drawn)
IC50 [1]: > 1000 nM

SMILES: CNC(=O)c1sc(-c2ccnc(NC(=O)C3CC3)c2)nc1OCCOCCOCCOCCn1cc(COc2cccc3c2C(=O)N(C2CCC(=O)NC2=O)C3=O)nn1 (stereo not drawn)
IC50 [1]: 79.5 nM
GSK3beta protein level remaining [2]: 54%

SMILES: CNC(=O)c1sc(-c2ccnc(NC(=O)C3CC3)c2)nc1OCCOCCOCCOc1cccc2c1C(=O)N(C1CCC(=O)NC1=O)C2=O (stereo not drawn)
IC50 [1]: 105 nM
GSK3beta protein level remaining [2]: 92.8%

SMILES: CNC(=O)c1sc(-c2ccnc(NC(=O)C3CC3)c2)nc1OCCOCCOCCOCCOCCOc1cccc2c1C(=O)N(C1CCC(=O)NC1=O)C2=O (stereo not drawn)
IC50 [1]: 69.3 nM
GSK3beta protein level remaining [2]: 95.5%

SMILES: CNC(=O)c1sc(-c2ccnc(NC(=O)C3CC3)c2)nc1OCCOCC#Cc1ccc2c(c1)C(=O)N(C1CCC(=O)NC1=O)C2=O (stereo not drawn)
IC50 [1]: 19.7 nM
GSK3beta protein level remaining [2]: 68.8%

SMILES: NC(=O)c1sc(-c2ccnc(NC(=O)C3CC3)c2)nc1OCCC#Cc1ccc2c(c1)C(=O)N(C1CCC(=O)NC1=O)C2=O (stereo not drawn)
IC50 [1]: > 1000 nM

SMILES: CNC(=O)c1sc(-c2ccnc(NC(=O)C3CC3)c2)nc1OCCOCC#Cc1cccc2c1CN(C1CCC(=O)NC1=O)C2=O (stereo not drawn)
IC50 [1]: 49.2 nM
GSK3beta protein level remaining [2]: 89.7%

SMILES: COc1nc(-c2ccnc(NC(=O)C3CC3)c2)sc1C(=O)NCCCCNC(=O)COc1cccc2c1C(=O)N(C1CCC(=O)NC1=O)C2=O (stereo not drawn)
IC50 [1]: 639 nM

SMILES: NC(=O)c1sc(-c2ccnc(NC(=O)C3CC3)c2)nc1OCCOCC#Cc1ccc2c(c1)C(=O)N(C1CCC(=O)NC1=O)C2=O (stereo not drawn)
IC50 [1]: 27.7 nM
GSK3beta protein level remaining [2]: 75.3%

SMILES: NC(=O)c1sc(-c2ccnc(NC(=O)C3CC3)c2)nc1OCCOCC#Cc1cccc2c1CN(C1CCC(=O)NC1=O)C2=O (stereo not drawn)
IC50 [1]: 63.8 nM
GSK3beta protein level remaining [2]: 86.9%

SMILES: CNC(=O)c1sc(-c2ccnc(NC(=O)C3CC3)c2)nc1OCCOCCOCCn1cc(COc2cccc3c2C(=O)N(C2CCC(=O)NC2=O)C3=O)nn1 (stereo not drawn)
IC50 [1]: 46.9 nM
GSK3beta protein level remaining [2]: 62.7%

SMILES: CNC(=O)c1sc(-c2ccnc(NC(=O)C3CC3)c2)nc1OCCCCCCCCn1cc(COc2cccc3c2C(=O)N(C2CCC(=O)NC2=O)C3=O)nn1 (stereo not drawn)
IC50 [1]: 83.1 nM
GSK3beta protein level remaining [2]: 25.2%
Activity [3]: 109%
Activity [4]: 55.8%
Activity [5]: 36.5%
Activity [6]: 16.7%
Activity [7]: 96.6%
Activity [8]: 102%
Activity [9]: Dose-dependent effect
inhibition [10]: 3.27%
inhibition [11]: 3.65%
inhibition [12]: 4.09%
inhibition [13]: 4.01%
inhibition [14]: 13.8%
inhibition [15]: 1.78%
inhibition [16]: 19.6%
inhibition [17]: 40.4%
inhibition [18]: 18.4%
inhibition [19]: 81.5%
inhibition [20]: 88.9%
inhibition [21]: 6.94%
inhibition [22]: 5.63%
inhibition [23]: 5.84%
inhibition [24]: 6.79%
Activity [25]: Active
Activity [26]: Active

SMILES: CNC(=O)c1sc(-c2ccnc(NC(=O)C3CC3)c2)nc1OCCCCCCOc1cccc2c1C(=O)N(C1CCC(=O)NC1=O)C2=O (stereo not drawn)
IC50 [1]: 71.6 nM

SMILES: CNC(=O)c1sc(-c2ccnc(NC(=O)C3CC3)c2)nc1OCCCCCCCCOc1cccc2c1C(=O)N(C1CCC(=O)NC1=O)C2=O (stereo not drawn)
IC50 [1]: 23.8 nM
GSK3beta protein level remaining [2]: 95.6%

SMILES: COc1nc(-c2ccnc(NC(=O)C3CC3)c2)sc1C(=O)NCCCCCCNC(=O)COc1cccc2c1C(=O)N(C1CCC(=O)NC1=O)C2=O (stereo not drawn)
IC50 [1]: 243 nM

SMILES: NC(=O)c1sc(-c2ccnc(NC(=O)C3CC3)c2)nc1O
GSK3beta protein level remaining [2]: 104%
Activity [27]: 111%

SMILES: CNC(=O)c1sc(-c2ccnc(NC(=O)C3CC3)c2)nc1OCCCC#Cc1ccc2c(c1)C(=O)N(C1CCC(=O)NC1=O)C2=O (stereo not drawn)
IC50 [1]: 79.1 nM
GSK3beta protein level remaining [2]: 99.2%

SMILES: CNC(=O)c1sc(-c2ccnc(NC(=O)C3CC3)c2)nc1OCCCCCCCCCCCCOc1cccc2c1C(=O)N(C1CCC(=O)NC1=O)C2=O (stereo not drawn)
IC50 [1]: 98 nM
GSK3beta protein level remaining [2]: 58.1%

SMILES: CNC(=O)c1sc(-c2ccnc(NC(=O)C3CC3)c2)nc1OCCCCCCCCCCOc1cccc2c1C(=O)N(C1CCC(=O)NC1=O)C2=O (stereo not drawn)
IC50 [1]: 70.4 nM
GSK3beta protein level remaining [2]: 85.6%

SMILES: CNC(=O)c1sc(-c2ccnc(NC(=O)C3CC3)c2)nc1OCCOCCOCCOCCOc1cccc2c1C(=O)N(C1CCC(=O)NC1=O)C2=O (stereo not drawn)
IC50 [1]: 73.2 nM
GSK3beta protein level remaining [2]: 71.2%

SMILES: COc1nc(-c2ccnc(NC(=O)C3CC3)c2)sc1C(=O)NCCCNC(=O)COc1cccc2c1C(=O)N(C1CCC(=O)NC1=O)C2=O (stereo not drawn)
IC50 [1]: 874 nM

From ChEMBL document CHEMBL4732075, “PROTACs suppression of GSK-3β, a crucial kinase in neurodegenerative diseases” (Eur J Med Chem, 2021)
